Source: publication PMC10388305, “Synthesis and Evaluation of a Monomethyl Auristatin E—Integrin αvβ6 Binding Peptide–Drug Conjugate for Tumor Targeted Drug Delivery” (Journal of Medicinal Chemistry, 2023)
Square brackets hold non-standard residues; d marks the D form. Peptide text beside a SMILES is read from it. * marks the point of attachment. Dolaproine = CO[C@@H]([C@@H]1CCCN1)[C@@H](C)C(=O)O; Dil = CC[C@H](C)[C@H](NC)[C@@H](CC(=O)O)OC; X1 = C[C@@H](N*)[C@@H](O)c1ccccc1; NMeV = CN[C@H](C(=O)O)C(C)C

Key:
DX3puro (−) cells [1] = experiment: Caspase-3/7 activity assay (ApoTox-Glo), DX3puro; type: cell-based; settings: 0.625 nM (MMAE 1 nM, staurosporine 100 nM), 24, 48, 72 h
Experimental: (§1) Caspase-3/7 activity was analyzed using an ApoTox-Glo Triplex Assay kit. Cells were seeded in a 96 well plate at the same density and using the same respective media as described for the WST-1 assay and incubated overnight (37 °C, 5% CO2). DX3puroβ6 and DX3puro cells were treated with 1 nM of MMAE (free, non-targeted drug) or 0.625 nM of the other compounds: NH2-2, [^natCu]2, NH2-PDC-1, or [^natCu]PDC-1. BxPC-3 and MIA PaCa-2 cells were treated with 10 nM of MMAE or 250 nM of the other compounds: NH2-2, [^natCu]2, NH2-PDC-1, or [^natCu]PDC-1. All cells were treated with 100 nM of staurosporine as a positive control.[24] Untreated cells (media) were used as a measure of endogenous caspase-3/7 activity (normalized to 1). Cells were treated (n = 4/cell line/compound/time) for 24, 48, or 72 h (37 °C, 5% CO2) prior to washing. After treatment, the media was removed, cells were washed, and Caspase-Glo 3/7 reagent was added, and incubated for 1 h at room temperature. Caspase-3/7 activity was analyzed by measuring luminescence with a Fluoroskan FL microplate reader according to the manufacturer’s protocol.

[2] = cited from earlier work
Experimental: Tumor xenografts were established by subcutaneous injection of either DX3puroβ6 or DX3puro cells (3 × 10^6 cells in 100 μL serum-free DMEM/animal) into the flank. The tumors were allowed to grow for 19 days before the start of treatment (day 0). Mice were treated with either (1) saline, (2) peptide ([^natCu]2), 6 mg/kg, 1.12 μmol/kg), (3) non-targeted drug (MMAE, 0.3 mg/kg, 0.42 μmol/kg), or (4) PDC ([^natCu]PDC-1, 6 mg/kg, 0.88 μmol/kg). Dosing of MMAE was 0.3 mg/kg as per maximum dose with no physiological response.[25] The [^natCu]PDC-1 treatment groups consisted of n = 10/tumor model, whil ...

DX3puroβ6 (+) cells [3] = experiment: WST-1 cell viability assay, DX3puroβ6; type: cell-based; settings: DX3puroβ6 (+); 48 h treatment + 24 h media; mean ± SD
Experimental: (§2) Peptides NH2-2 and [^natCu]2 were not toxic to any cells (Figure 3, gray and black, respectively).
(§3) Cell viability was measured after treatment with either NH2-2, [^natCu]2, MMAE (free, non-targeted drug), NH2-PDC-1, or [^natCu]PDC-1 in DX3puroβ6 (+) and DX3puro (−) cells at variable concentrations up to 5 nM, and in BxPC-3 (+) and MIA PaCa-2 (−) cells at variable concentrations up to 250 nM, or with MMAE at concentrations up to 10 nM. Cells were seeded in a 96 well plate at a density of 6000 cells/well for DX3puroβ6 and DX3puro, and at a density of 10,000 cells/well for BxPC-3 and MIA PaCa-2. DMEM media was used for all cells except for BxPC-3 (RPMI 1640 media). Cells (n = 6–8 wells/cell type/compound) were treated with different concentrations of NH2-2, [^natCu]2, MMAE, NH2-PDC-1, or [^natCu]PDC-1 dissolved in the respective media, as well as their respective media (no treatment) for 48 h (37 °C, 5% CO2), after which the media was removed; cells were washed twice with media (200 μL) and re-incubated in media (37 °C, 5% CO2) for 24 h. The media was then removed and the WST-1 reagent was added to each well, and the cells were incubated for 2 h at 37 °C. The 96 well plates were read at 450 nm by a Multiscan Ascent microplate reader. The percent cell viability was normalized to untreated cells (set as 100% viability) for each cell line.

DX3puro (−) cells [4] = experiment: WST-1 cell viability assay, DX3puro; type: cell-based; settings: 48 h treatment + 24 h media, up to 5 nM, mean ± SD
Experimental: as §2, §3

MIA PaCa-2 (−) cells [5] = experiment: WST-1 cell viability assay, MIA PaCa-2; type: cell-based; settings: MIA PaCa-2 (−); 48 h treatment + 24 h media; up to 250 nM (MMAE up to 10 nM); mean ± SD
Experimental: as §2, §3

MIA PaCa-2 (−) cells [6] = experiment: Caspase-3/7 activity assay (ApoTox-Glo), MIA PaCa-2; type: cell-based; settings: 250 nM (MMAE 10 nM, staurosporine 100 nM), 24, 48, 72 h
Experimental: as §1

BxPC-3 (+) cells [7] = experiment: Caspase-3/7 activity assay (ApoTox-Glo), BxPC-3; type: cell-based; settings: 250 nM (MMAE 10 nM, staurosporine 100 nM), 24, 48, 72 h
Experimental: as §1

BxPC-3 (+) cells [8] = experiment: WST-1 cell viability assay, BxPC-3; type: cell-based; settings: 48 h treatment + 24 h media, mean ± SD
Experimental: as §2, §3

[9] = tested on: DX3puroβ6 (+) and DX3puro (−) tumors; experiment: Therapy study, control groups (half DX3puroβ6 (+), half DX3puro (−) tumors); type: in vivo, mice
Description: Mice treated with [^natCu]PDC-1 had slower tumor growth compared to the groups receiving saline, non-drug bearing peptide [^natCu]2, or free, non-targeted MMAE (Figure 7). […] All mice in the groups treated with saline, non-drug bearing peptide [^natCu]2, or free, non-targeted MMAE had met an end point criterion (≥2 cm in any direction and/or tumor ulceration) by 56 days, 70 days, and 64 days from start of treatment, respectively, with all these groups having the same median survival of 37 days (Figure 7B).
Figure 7 (A) Average tumor volume over time. (B) Kaplan–Meier survival plot.
Tumor xenografts were established by subcutaneous injection of either DX3puroβ6 or DX3puro cells (3 × 10^6 cells in 100 μL serum-free DMEM/animal) into the flank. The tumors were allowed to grow for 19 days before the start of treatment (day 0). […] Tumor volumes and body weights (to assess possible systemic toxicity) were measured starting on day 0, and once a week thereafter until the end of the study. Tumor volume (V) was determined according to the equation V = (π/6) × L × W × H, where L is the longest axis, W is the axis perpendicular to L, and H is perpendicular to the plane of L and W. End point determination criteria were: any axis >2 cm, active ulceration, or compromised health of the mouse (>20% loss of body weight from the start of the study). […] Survival curves were determined by Kaplan–Meier method.

DX3puroβ6 (+) cells [10] = experiment: Caspase-3/7 activity assay (ApoTox-Glo), DX3puroβ6; type: cell-based; settings: DX3puroβ6 (+); 0.625 nM (MMAE 1 nM, staurosporine 100 nM); 24, 48, 72 h
Experimental: as §1

CC[C@H](C)[C@@H]([C@@H](CC(=O)N1CCC[C@H]1[C@H](OC)[C@@H](C)C(=O)N[C@H](C)[C@@H](O)c1ccccc1)OC)N(C)C(=O)[C@@H](NC(=O)[C@@H](NC)C(C)C)C(C)C [MMAE, monomethyl auristatin E] (H-[NMeV]V[Dil][Dolaproine]-X1)
Caspase-3/7 activity (in words) (DX3puro (−) cells [1]): increased caspase-3/7 activity | Maximum dose with no physiological response [2]: 0.3 mg/kg | EC50 (DX3puroβ6 (+) cells [3]): 0.15 ± 0.02 nM | EC50 (DX3puro (−) cells [4]): 0.14 ± 0.03 nM | EC50 (MIA PaCa-2 (−) cells [5]): 0.16 ± 0.01 nM | Caspase-3/7 activity (in words) (MIA PaCa-2 (−) cells [6]): increased caspase-3/7 activity | Caspase-3/7 activity (in words) (BxPC-3 (+) cells [7]): increased caspase-3/7 activity | EC50 (BxPC-3 (+) cells [8]): 0.5 ± 0.03 nM | Median survival ([9]; [natCu]2 6 mg/kg, MMAE 0.3 mg/kg i.v. on days 0, 3, 6, 9, n = 8/group): 37 days | Time by which all mice had met an end point criterion ([9]; from start of treatment): ≤ 64 days | Caspase-3/7 activity (in words) (DX3puroβ6 (+) cells [10]): increased caspase-3/7 activity
